Data on one compound can be found in patent publication US7387796B2, “Stable compositions of S-adenosyl-l-methionine with dextran” (priority 2002, dated 2008).

The conditions of data set [1]: oral administration, patients with and without liver disease; cited from earlier work.
The conditions of data set [2]: oral, alcoholic liver cirrhosis, compared with placebo treated group; cited from earlier work.
The conditions of data set [3]: in vivo; cited from earlier work.
The conditions of data set [4]: oral administration, intrahepatic cholestasis; cited from earlier work.
The conditions of data set [5]: 10 ng/ml injected; sample left at room temperature in the light for 12 months, no special protection.
The conditions of data set [6]: patients with Alzheimer's disease, preliminary study; cited from earlier work.
For data set [7] the following is noted: oral administration, short term trial; cited from earlier work.

On to `C[S+](CC[C@H](N)C(=O)[O-])C[C@H]1O[C@@H](n2cnc3c(N)ncnc32)[C@H](O)[C@@H]1O` (some centres unmarked) [SAM-e, S-adenosyl-1-methionine], for which, in data set [1], the liver glutathione levels result was “increases in liver glutathione levels”. In addition, in data set [2], the “overall mortality and/or progression to liver transplant” value was 12%. Moreover, the “toxicity in clinical use” value in data set [3] was “absence of toxicity”. For the same compound, in data set [4], the “pruritus and biochemical markers of cholestasis” value is “improvements in both the pruritus as well as the biochemical markers of cholestasis”. In data set [5], the “Area of HPLC peak” value was determined as 189251 and the conc. came to 10 ng/mL. In data set [6], the cognitive effect result was “cognitive improvement”. In addition, the “clinical effect in primary fibromyalgia” value in data set [7] is recorded as “significant improvement”.
